ChEMBL document CHEMBL4732189, “A facile synthesis of diaryl pyrroles led to the discovery of potent colchicine site antimitotic agents” (Eur J Med Chem, 2021)

Legend:
CCRF-CEM = test: Antiproliferative activity against human CCRF-CEM cells assessed as reduction in cell viability after 72 hrs by MTT assay; assay type: functional, cell-based
HL-60 = test: Antiproliferative activity against human HL-60 cells assessed as reduction in cell viability after 72 hrs by MTT assay; assay type: functional, cell-based; settings: HL-60, 72 h
SEM cells = test: Antiproliferative activity against human SEM cells assessed as reduction in cell viability after 72 hrs by MTT assay; assay type: functional, cell-based
HeLa = test: cells; settings: Homo sapiens, 72 h
Description: Antiproliferative activity against human HeLa cells assessed as reduction in cell viability after 72 hrs by MTT assay

A549 = test: cells; settings: Homo sapiens, A549, 72 h
Description: Antiproliferative activity against human A549 cells assessed as reduction in cell viability after 72 hrs by MTT assay

HT-29 = test: cells; settings: Homo sapiens, HT-29, 72 h
[1] = Inhibition of bovine brain tubulin polymerization incubated for 15 mins followed by GTP addition and measured after 20 mins by spectrophotometric method; assay type: tissue-based, Bos taurus
Bos taurus = species: Bos taurus; test: Displacement of [3H]colchicine from bovine brain tubulin at 5 uM by DEAE-cellulose filter method relative to control; assay type: tissue-based

IC50 (CCRF-CEM) | IC50 (HL-60) | IC50 (HeLa) | IC50 (A549) | IC50 (HT-29) | IC50 [1] | inhibition (Bos taurus) | SMILES | IC50 (SEM cells)
0.117 µM | 0.255 µM | 0.028 µM | 0.088 µM | 0.031 µM | – | – | COc1ccc(-c2c[nH]cc2-c2cc(OC)c(OC)c(OC)c2)cc1 | 0.0346 µM
4.24 µM | 3.62 µM | 0.37 µM | 0.683 µM | 0.703 µM | – | – | CCCOc1ccc(-c2c[nH]cc2-c2cc(OC)c(OC)c(OC)c2)cc1 | 0.913 µM
0.28 µM | 0.177 µM | 0.297 µM | 0.243 µM | 0.279 µM | – | – | COc1ccc(-c2c[nH]cc2-c2cc(OC)c(OC)c(OC)c2)cc1Cl | 0.0693 µM
0.047 µM | 0.0317 µM | 0.054 µM | 0.098 µM | 0.13 µM | 1.2 µM | 83% | COc1cc(-c2c[nH]cc2-c2ccc(C)cc2)cc(OC)c1OC | 0.0172 µM
0.226 µM | 0.164 µM | 0.297 µM | 0.257 µM | 0.289 µM | – | – | CCc1ccc(-c2c[nH]cc2-c2cc(OC)c(OC)c(OC)c2)cc1 | 0.048 µM
0.053 µM | 0.0336 µM | 0.033 µM | 0.203 µM | 0.048 µM | – | – | COc1ccc(-c2c[nH]cc2-c2cc(OC)c(OC)c(OC)c2)cc1F | 0.0053 µM
1.34 µM | 0.933 µM | 0.445 µM | 0.408 µM | 0.865 µM | – | – | COc1cc(-c2c[nH]cc2-c2ccc(C(F)(F)F)cc2)cc(OC)c1OC | 0.343 µM
3.07 µM | 2.66 µM | 0.386 µM | 0.336 µM | 0.63 µM | – | – | CCSc1ccc(-c2c[nH]cc2-c2cc(OC)c(OC)c(OC)c2)cc1 | 0.48 µM
6.26 µM | 5.95 µM | 5.23 µM | 4.23 µM | 5.46 µM | – | – | COc1cc(-c2c[nH]cc2-c2ccc(OC(F)(F)F)cc2)cc(OC)c1OC | 4.79 µM
0.0879 µM | 0.054 µM | 0.137 µM | 0.228 µM | 0.255 µM | – | – | COc1cc(-c2c[nH]cc2-c2ccc3ccccc3c2)cc(OC)c1OC | 0.032 µM
> 10 µM | > 10 µM | > 10 µM | 8 µM | > 10 µM | – | – | COCOc1ccc(-c2c[nH]cc2-c2cc(OC)c(OC)c(OC)c2)cc1 | > 10 µM

The remaining lines, values behind:

SMILES | IC50 (CCRF-CEM) | IC50 (HL-60) | IC50 (HeLa) | IC50 (A549) | IC50 (HT-29) | IC50 [1] | inhibition (Bos taurus) | IC50 (SEM cells)
COc1cc(-c2cccn2-c2ccc(C)c(C)c2)cc(OC)c1OC | 3.51 µM | 4.01 µM | > 10 µM | > 10 µM | > 10 µM | – | – | 2.01 µM
CCOc1ccc(-c2cccn2-c2cc(OC)c(OC)c(OC)c2)cc1 | 1.91 µM | 0.36 µM | 0.39 µM | 4.52 µM | 0.39 µM | 5.6 µM | 63% | 0.14 µM
COc1ccc(-c2cccn2-c2cc(OC)c(OC)c(OC)c2)cc1C | 2.51 µM | 3.93 µM | 9.81 µM | > 10 µM | > 10 µM | – | – | 1.01 µM
COc1cc(-c2cccn2-c2cc(OC)c(OC)c(OC)c2)ccc1C | 2.81 µM | 3.62 µM | > 10 µM | > 10 µM | > 10 µM | – | – | 2.31 µM
COc1cc(-n2cccc2-c2cc(C)c(OC)c(C)c2)cc(OC)c1OC | 9.11 µM | > 10 µM | > 10 µM | > 10 µM | > 10 µM | – | – | 7.92 µM
CCc1ccc(-n2cccc2-c2cc(OC)c(OC)c(OC)c2)cc1 | 4.31 µM | 3.61 µM | > 10 µM | > 10 µM | 8.34 µM | – | – | 1.33 µM
COc1ccc(-c2cccn2-c2cc(OC)c(OC)c(OC)c2)cc1F | 1.71 µM | 0.37 µM | 6.12 µM | 9.01 µM | 4.12 µM | 2.6 µM | 64% | 0.2 µM
CCOc1ccc(-n2cccc2-c2cc(OC)c(OC)c(OC)c2)cc1 | 3.02 µM | 0.43 µM | 3.42 µM | > 10 µM | 5.52 µM | 2.3 µM | 57% | 0.27 µM
COc1cc(-n2cccc2-c2ccc(C)cc2)cc(OC)c1OC | 2.43 µM | 0.35 µM | 3.22 µM | 9.62 µM | 3.91 µM | 1.6 µM | 60% | 0.27 µM
COc1cc(-n2cccc2-c2cc3ccccc3s2)cc(OC)c1OC | 2.92 µM | 3.01 µM | 0.95 µM | > 10 µM | 5.91 µM | – | – | 0.29 µM
COc1cc(-c2c[nH]cc2-c2cc3ccccc3s2)cc(OC)c1OC | 0.155 µM | 0.0353 µM | 0.043 µM | 0.228 µM | 0.383 µM | – | – | 0.0373 µM
COc1ccc(-c2cccn2-c2cc(OC)c(OC)c(OC)c2)cc1 | 2.51 µM | 0.47 µM | 1.92 µM | > 10 µM | 2.12 µM | – | – | 0.15 µM
CCc1ccc(-c2cccn2-c2cc(OC)c(OC)c(OC)c2)cc1 | 3.01 µM | 1.13 µM | 9.92 µM | > 10 µM | 5.44 µM | – | – | 0.31 µM
COc1cc(-n2cccc2-c2ccc(SC)cc2)cc(OC)c1OC | 2.81 µM | 0.81 µM | > 10 µM | > 10 µM | > 10 µM | – | – | 0.2 µM
COc1ccc(-c2cccn2-c2cc(OC)c(OC)c(OC)c2)cc1Cl | 2.91 µM | 3.22 µM | 9.81 µM | > 10 µM | > 10 µM | – | – | 0.55 µM
COc1cc(-c2cccn2-c2ccc(N(C)C)cc2)cc(OC)c1OC | 3.91 µM | 2.62 µM | 5.61 µM | > 10 µM | 7.12 µM | – | – | 0.61 µM
CCCc1ccc(-c2cccn2-c2cc(OC)c(OC)c(OC)c2)cc1 | 4.91 µM | > 10 µM | > 10 µM | > 10 µM | > 10 µM | – | – | > 10 µM
COc1cc(-n2cccc2-c2ccc(C)c(C)c2)cc(OC)c1OC | 3.2 µM | 4.01 µM | 3.28 µM | > 10 µM | 7.81 µM | – | – | 0.75 µM
COc1ccc(/C=C\c2cc(OC)c(OC)c(OC)c2)cc1O [COMBRETASTATIN A4] | 0.002 µM | – | – | – | – | – | – | 0.005 µM
CCSc1ccc(-c2cccn2-c2cc(OC)c(OC)c(OC)c2)cc1 | 4.63 µM | 3.72 µM | 3.91 µM | > 10 µM | 9.42 µM | – | – | 1.55 µM
COc1cc(-c2cccn2-c2cccc3ccccc23)cc(OC)c1OC | 8.61 µM | > 10 µM | > 10 µM | > 10 µM | > 10 µM | – | – | 7.12 µM
COc1cccc(-n2cccc2-c2cc(OC)c(OC)c(OC)c2)c1 | 5.01 µM | 3.11 µM | > 10 µM | > 10 µM | > 10 µM | – | – | 2.01 µM
